# Data: US4622401A, “Heterocyclic substituted-amino-pyrazolines” (American Cyanamid Company, priority 1982, dated 1986)
# Columns and labels:
# [1] = reported by Higgs et al., Biochemical Pharmacology 28 1959 (1979); cited from earlier work
# [2] = "writhing syndrome" test for analgesic activity
# From the text: A method employed for measuring the in vivo activity of the compounds of the present invention is the "writhing syndrome" test for analgesic activity as described by Seigmund, et al., Proc. Soc, Exp. Biol. and Med., 95:729 (1957) with modifications. Representative compounds of the present invention which are active when tested by the "writhing syndrome" test are: 2-(3-Amino-2-pyrazolin-1-yl)benzothiazole 2-(3-Amino-5-methyl-2-pyrazolin-1-yl)benzothiazole
Structure (SMILES),anti-inflammatory activity [1],"analgesic activity in vivo, ""writhing syndrome"" test [2]"
"NC1=NN(c2cccc(C(F)(F)F)c2)CC1 [BW 755C, 3-amino-1-[m-(trifluoromethyl)phenyl]-2-pyrazoline]",anti-inflammatory activity,
"CC1CC(N)=NN1c1nc2ccccc2s1 (stereo not drawn) [Example 13, 2-(3-Amino-5-methyl-2-pyrazolin-1-yl)benzothiazole]",,active
"NC1=NN(c2nc3ccccc3s2)CC1 [Example 11, 2-(3-Amino-2-pyrazolin-1-yl)benzothiazole]",,active
